Test results from patent US20230085307A1, “PYRIDAZINONE COMPOUND AND HERBICIDE” (NISSAN CHEMICAL CORPORATION, priority 2019, published 2023).

Legend:
lambsquarters = experiment: Test Example 4: herbicidal effect by soil treatment (Table 19, symbol O); assay type: in vivo, lambsquarters (Chenopodium album); conditions: amount of applied herbicide 320 g/ha
In short: (§1)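 In this soil treatment, the formulated compound reached the seeds only through the soil: seeds were buried about 1.5 cm deep in sterilized diluvial soil, then the diluted emulsion was sprayed over the surface. After three weeks at 25° C. to 30° C. in a greenhouse, effects were graded on criteria from an earlier test.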

barnyard grass [1] = experiment: Test Example 4: herbicidal effect by soil treatment (Table 19, symbol H); assay type: in vivo, barnyard grass (Echinochloa crus-galli); conditions: amount of applied herbicide 320 g/ha
In short: as §1

wild oat = experiment: Test Example 4: herbicidal effect by soil treatment (Table 19, symbol I); assay type: in vivo, wild oat (Avena fatua); conditions: amount of applied herbicide 320 g/ha
In short: as §1

velvetleaf [2] = experiment: Test Example 5: herbicidal effect by foliage application, plastic box (Table 20, symbol M); assay type: in vivo, velvetleaf (Abutilon theophrasti); conditions: foliage application after 14-day growth, evaluated three weeks after application; for Herbicidal effect by foliage application, M: velvetleaf: amount of applied herbicide 320 g/ha
In short: (§2)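 Plants were sown into sterilized diluvial soil under about 1.5 cm cover and kept in a greenhouse at 25° C. to 30° C. Fourteen days on, foliage received an even spray of the diluted emulsion. Herbicidal or crop effect was judged three weeks afterwards.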

persian speedwell = experiment: Test Example 5: herbicidal effect by foliage application, plastic box (Table 20, symbol R); assay type: in vivo, Persian speedwell (Veronica persica); conditions: foliage application after 14-day growth, evaluated three weeks after application; for Herbicidal effect by foliage application, R: persian speedwell: amount of applied herbicide 320 g/ha
In short: as §2

chickweed [3] = experiment: Test Example 5: herbicidal effect by foliage application, plastic box (Table 20, symbol P); assay type: in vivo, common chickweed (Stellaria media); conditions: foliage application after 14-day growth, evaluated three weeks after application; for Herbicidal effect by foliage application, P: chickweed: amount of applied herbicide 320 g/ha
In short: as §2

Italian ryegrass [4] = experiment: Test Example 4: herbicidal effect by soil treatment (Table 19, symbol K); assay type: in vivo, Italian ryegrass (Lolium multiflorum); conditions: amount of applied herbicide 320 g/ha
In short: as §1

velvetleaf [5] = experiment: Test Example 4: herbicidal effect by soil treatment (Table 19, symbol M); assay type: in vivo, velvetleaf (Abutilon theophrasti); conditions: amount of applied herbicide 320 g/ha
In short: as §1

barnyard grass [6] = experiment: Test Example 3: herbicidal effect by foliage application, Wagner pot (Table 18, symbol H); assay type: in vivo, barnyard grass (Echinochloa crus-galli); conditions: 320 g/ha
In short: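 Plants were sown in alluvial soil held under 0.1–0.5 cm standing water and grown 14 days in a greenhouse at 25–30 °C. An emulsifiable formulation, water-diluted to the set dose, was then sprayed onto the foliage, and effects were scored three weeks later using previously defined criteria.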

blackgrass [7] = experiment: Test Example 5: herbicidal effect by foliage application, plastic box (Table 20, symbol J); assay type: in vivo, blackgrass (Alopecurus myosuroides); conditions: foliage application after 14-day growth, evaluated three weeks after application; for Herbicidal effect by foliage application, J: blackgrass: amount of applied herbicide 320 g/ha
In short: as §2

chickweed [8] = experiment: Test Example 4: herbicidal effect by soil treatment (Table 19, symbol P); assay type: in vivo, common chickweed (Stellaria media); conditions: amount of applied herbicide 320 g/ha
In short: as §1

Italian ryegrass [9] = experiment: Test Example 5: herbicidal effect by foliage application, plastic box (Table 20, symbol K); assay type: in vivo, Italian ryegrass (Lolium multiflorum); conditions: foliage application after 14-day growth, evaluated three weeks after application; for Herbicidal effect by foliage application, K: Italian ryegrass: amount of applied herbicide 320 g/ha
In short: as §2

Japanese bulrush = experiment: Test Example 2: herbicidal activity, application during weed generation under submerged conditions (Table 17, symbol B); assay type: in vivo, Japanese bulrush (Schoenoplectus juncoides); conditions: AAH 320 g/ha; application during weed generation, submerged conditions
In short: (§3)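 Alluvial soil in Wagner pots was flooded to 4 cm depth and sown with the three weeds together; pots were kept in a greenhouse at 25° C. to 30° C. At the one to two leaf stage, an emulsion formulation diluted in water to a set rate went onto the water surface; scored three weeks later.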

blackgrass [10] = experiment: Test Example 4: herbicidal effect by soil treatment (Table 19, symbol J); assay type: in vivo, blackgrass (Alopecurus myosuroides); conditions: amount of applied herbicide 320 g/ha
In short: as §1

redroot pigweed = experiment: Test Example 5: herbicidal effect by foliage application, plastic box (Table 20, symbol N); assay type: in vivo, redroot pigweed (Amaranthus retroflexus); conditions: foliage application after 14-day growth, evaluated three weeks after application; for Herbicidal effect by foliage application, N: redroot pigweed: amount of applied herbicide 320 g/ha
In short: as §2

late watergrass = experiment: Test Example 2: herbicidal activity, application during weed generation under submerged conditions (Table 17, symbol A); assay type: in vivo, late watergrass (Echinochloa oryzicola); conditions: AAH 320 g/ha; application during weed generation, submerged conditions
In short: as §3

green foxtail = experiment: Test Example 4: herbicidal effect by soil treatment (Table 19, symbol G); assay type: in vivo, green foxtail (Setaria viridis); conditions: amount of applied herbicide 320 g/ha
In short: as §1

Row | Structure (SMILES) | Herbicidal effect by soil treatment, O: lambsquarters (lambsquarters) | Herbicidal effect by soil treatment, H: barnyard grass (barnyard grass [1]) | Herbicidal effect by soil treatment, I: wild oat (wild oat) | Herbicidal effect by soil treatment, K: Italian ryegrass (Italian ryegrass [4]) | Herbicidal effect by soil treatment, M: velvetleaf (velvetleaf [5]) | herbicidal effect on barnyard grass (H) (barnyard grass [6]) | Herbicidal effect by soil treatment, P: chickweed (chickweed [8]) | herbicidal effect rating, B: Japanese bulrush (Japanese bulrush) | Herbicidal effect by soil treatment, J: blackgrass (blackgrass [10]) | herbicidal effect rating, A: late watergrass (late watergrass) | Herbicidal effect by soil treatment, G: green foxtail (green foxtail) | Herbicidal effect by foliage application, M: velvetleaf (velvetleaf [2]) | Herbicidal effect by foliage application, R: persian speedwell (persian speedwell) | Herbicidal effect by foliage application, P: chickweed (chickweed [3]) | Herbicidal effect by foliage application, J: blackgrass (blackgrass [7]) | Herbicidal effect by foliage application, K: Italian ryegrass (Italian ryegrass [9]) | Herbicidal effect by foliage application, N: redroot pigweed (redroot pigweed) | further results
1 | CCCC(=O)Oc1c(C)nn(C)c(=O)c1-c1c(-c2ccc(SC)cc2)sc2c(F)cccc12 [4-051] | 4 (Herbicidal rate of 70% or more and less than 90%) | 0 (Herbicidal rate of 5% or less (almost no effect)) | 0 (Herbicidal rate of 5% or less (almost no effect)) | 4 (Herbicidal rate of 70% or more and less than 90%) | 0 (Herbicidal rate of 5% or less (almost no effect)) | 5 (Herbicidal rate of 90% or more (almost completely withered)) | 4 (Herbicidal rate of 70% or more and less than 90%) | 3 (Herbicidal rate of 40% or more and less than 70%) | 0 (Herbicidal rate of 5% or less (almost no effect)) | 3 (Herbicidal rate of 40% or more and less than 70%) | 1 (Herbicidal rate of 5% or more and less than 20%) |  |  |  |  |  |  | herbicidal effect on M: velvetleaf (evaluation grade 0-5) (velvetleaf [2]; 320 g/ha): 5 (Herbicidal rate of 90% or more (almost completely withered)); herbicidal effect on R: persian speedwell (evaluation grade 0-5) (persian speedwell; 320 g/ha): 5 (Herbicidal rate of 90% or more (almost completely withered)); herbicidal effect on P: chickweed (evaluation grade 0-5) (chickweed [3]; 320 g/ha): 5 (Herbicidal rate of 90% or more (almost completely withered)); herbicidal effect on J: blackgrass (evaluation grade 0-5) (blackgrass [7]; 320 g/ha): 4 (Herbicidal rate of 70% or more and less than 90%); herbicidal effect on K: Italian ryegrass (evaluation grade 0-5) (Italian ryegrass [9]; 320 g/ha): 4 (Herbicidal rate of 70% or more and less than 90%); herbicidal effect on N: redroot pigweed (evaluation grade 0-5) (redroot pigweed; 320 g/ha): 5 (Herbicidal rate of 90% or more (almost completely withered))
2 | Cc1nn(C)c(=O)c(-c2c(-c3ccccc3OC(F)(F)F)sc3c(Cl)cccc23)c1O [4-076] | 3 (Herbicidal rate of 40% or more and less than 70%) | 0 (Herbicidal rate of 5% or less (almost no effect)) | 0 (Herbicidal rate of 5% or less (almost no effect)) | 0 (Herbicidal rate of 5% or less (almost no effect)) | 2 (Herbicidal rate of 20% or more and less than 40%) | 4 (Herbicidal rate of 70% or more and less than 90%) | 1 (Herbicidal rate of 5% or more and less than 20%) | 2 (Herbicidal rate of 20% or more and less than 40%) | 0 (Herbicidal rate of 5% or less (almost no effect)) | 3 (Herbicidal rate of 40% or more and less than 70%) | 0 (Herbicidal rate of 5% or less (almost no effect)) | 4 (Herbicidal rate of 70% or more and less than 90%) | 5 (Herbicidal rate of 90% or more (almost completely withered)) | 5 (Herbicidal rate of 90% or more (almost completely withered)) | 0 (Herbicidal rate of 5% or less (almost no effect)) | 0 (Herbicidal rate of 5% or less (almost no effect)) | 5 (Herbicidal rate of 90% or more (almost completely withered)) | 
3 | COc1ccc(-c2sc3c(C)cccc3c2-c2c(O)c(C)nn(C)c2=O)cc1 [4-110] | 5 (Herbicidal rate of 90% or more (almost completely withered)) | 0 (Herbicidal rate of 5% or less (almost no effect)) | 0 (Herbicidal rate of 5% or less (almost no effect)) | 5 (Herbicidal rate of 90% or more (almost completely withered)) | 3 (Herbicidal rate of 40% or more and less than 70%) | 5 (Herbicidal rate of 90% or more (almost completely withered)) | 5 (Herbicidal rate of 90% or more (almost completely withered)) | 3 (Herbicidal rate of 40% or more and less than 70%) | 0 (Herbicidal rate of 5% or less (almost no effect)) | 0 (Herbicidal rate of 5% or less (almost no effect)) | 0 (Herbicidal rate of 5% or less (almost no effect)) | 5 (Herbicidal rate of 90% or more (almost completely withered)) | 5 (Herbicidal rate of 90% or more (almost completely withered)) | 5 (Herbicidal rate of 90% or more (almost completely withered)) | 4 (Herbicidal rate of 70% or more and less than 90%) | 5 (Herbicidal rate of 90% or more (almost completely withered)) | 5 (Herbicidal rate of 90% or more (almost completely withered)) | 
4 | CCSc1ccc(-c2sc3c(C)cccc3c2-c2c(O)c(C)nn(C)c2=O)cc1 [4-124] | 5 (Herbicidal rate of 90% or more (almost completely withered)) | 3 (Herbicidal rate of 40% or more and less than 70%) | 0 (Herbicidal rate of 5% or less (almost no effect)) | 4 (Herbicidal rate of 70% or more and less than 90%) | 3 (Herbicidal rate of 40% or more and less than 70%) | 5 (Herbicidal rate of 90% or more (almost completely withered)) | 4 (Herbicidal rate of 70% or more and less than 90%) | 0 (Herbicidal rate of 5% or less (almost no effect)) | 2 (Herbicidal rate of 20% or more and less than 40%) | 3 (Herbicidal rate of 40% or more and less than 70%) | 5 (Herbicidal rate of 90% or more (almost completely withered)) | 5 (Herbicidal rate of 90% or more (almost completely withered)) | 5 (Herbicidal rate of 90% or more (almost completely withered)) | 5 (Herbicidal rate of 90% or more (almost completely withered)) | 5 (Herbicidal rate of 90% or more (almost completely withered)) | 5 (Herbicidal rate of 90% or more (almost completely withered)) | 5 (Herbicidal rate of 90% or more (almost completely withered)) | 
